For the test, the target named is T1, human V1A receptor (Homo sapiens, UniProt P37288).
T1 construct: expressed in transfected cells
The test can be described thus: V1A filter binding assay ([3H]-AVP binding to CHO-hV1A membranes). The settings on record: screen 1.0, [3H]-AVP displacement. The protocol: 1.0 V1A Filter Binding Assay
Receptor binding assays were performed on cellular membranes prepared from CHO cells stably expressing the human V1A receptor, (CHO-hV1A). The CHO-hV1A cell line was kindly provided under a licensing agreement by Marc Thibonnier, Dept. of Medicine, Case Western Reserve University School of Medicine, Cleveland, Ohio. CHO-hV1A cells were routinely maintained at 37° C. in humidified atmosphere with 5% CO2 in DMEM/Hams F12 nutrient mix supplemented with 10% fetal bovine serum, 2 mM L-glutamine, 15 mM HEPES and 400 μg/ml G418. For bulk production of cell pellets, adherent CHO-hV1A cells were grown to confluency of 90-100% in 850 cm^2 roller bottles containing a medium of DMEM/Hams F12 Nutrient Mix supplemented with 10% fetal bovine serum, 2 mM L-glutamine and 15 mM HEPES. Confluent CHO-hV1A cells were washed with phosphate-buffered saline (PBS), harvested into ice cold PBS and centrifuged at 1,000 rpm. Cell pellets were stored at −80° C. until use. Cell pellets were thawed on ice and homogenised in membrane preparation buffer consisting of 50 mM Tris-HCl, pH 7.4, 5 mM MgCl2 and supplemented with a protease inhibitor cocktail, (Roche). The cell homogenate was centrifuged at 1000 rpm, 10 min, 4° C. and the supernatant was removed and stored on ice. The remaining pellet was homogenised and centrifuged as before. The supernatants were pooled and centrifuged at 25,000×g for 30 min at 4° C. The pellet was resuspended in freezing buffer consisting of 50 mM Tris-HCl, pH 7.4, 5 mM MgCl2 and 20% glycerol and stored in small aliquots at −80° C. until use. Protein concentration was determined using Bradford reagent and BSA as a standard.
Protein linearity followed by saturation binding studies were performed on each new batch of membrane. Membrane concentration was chosen that gave specific binding on the linear portion of the curve. Saturation binding studies were then performed using various concentrations of [^3H]-arginine vasopressin, [^3H]-AVP (0.05 nM-100 nM) and the Kd and Bmax determined.
Compounds were tested for their effects on [^3H]-AVP binding to CHO-hV1A membranes, (^3H-AVP; specific activity 65.5 Ci/mmol; NEN Life Sciences). Compounds were solubilised in dimethylsulfoxide (DMSO) and diluted to working concentration of 10% DMSO with assay buffer containing 50 mM Tris-HCL pH 7.4, 5 mM MgCl2 and 0.05% BSA. […] The binding reaction was initiated by the addition of 200 μl membrane and the plates were gently shaken for 60 min at room temperature. The reaction was terminated by rapid filtration using a Filtermate Cell Harvester (Packard Instruments) through a 96-well GF/B UniFilter Plate which had been presoaked in 0.5% polyethyleneimine to prevent peptide sticking. The filters were washed three times with 1 ml ice cold wash buffer containing 50 mM Tris-HCL pH 7.4 and 5 mM MgCl2. The plates were dried and 50 μl Microscint-0 (Packard instruments) was added to each well. The plates were sealed and counted on a TopCount Microplate Scintillation Counter (Packard Instruments). Non-specific binding (NSB) was determined using 1 μM unlabelled d(CH2)5Tyr(Me)AVP ([β-mercapto-β,β-cyclopentamethylenepropionyl,0-Me-Tyr^2,Arg^8]-vasopressin) (βMCPVP), (Sigma). The radioligand binding data was analysed using a four parameter logistic equation with the min forced to 0%. The slope was free fitted and fell between −0.75 and −1.25 for valid curves. Specific binding was calculated by subtracting the mean NSB cpm from the mean Total cpm. For test compounds the amount of ligand bound to the receptor was expressed as % bound=(sample cpm−mean NSB cpm)/specific binding cpm×100. The % bound was plotted against the concentration of test compound and a sigmoidal curve was fitted. The inhibitory dissociation constant (Ki) was calculated using the Cheng-Prusoff equation: Ki=IC50/(1+[L]/Kd) where [L] is the concentration of ligand present in the well and Kd is the dissociation constant of the radioligand obtained from Scatchard plot analysis. […]

Structures are written as SMILES.

T1 sequence (P37288 whole entry): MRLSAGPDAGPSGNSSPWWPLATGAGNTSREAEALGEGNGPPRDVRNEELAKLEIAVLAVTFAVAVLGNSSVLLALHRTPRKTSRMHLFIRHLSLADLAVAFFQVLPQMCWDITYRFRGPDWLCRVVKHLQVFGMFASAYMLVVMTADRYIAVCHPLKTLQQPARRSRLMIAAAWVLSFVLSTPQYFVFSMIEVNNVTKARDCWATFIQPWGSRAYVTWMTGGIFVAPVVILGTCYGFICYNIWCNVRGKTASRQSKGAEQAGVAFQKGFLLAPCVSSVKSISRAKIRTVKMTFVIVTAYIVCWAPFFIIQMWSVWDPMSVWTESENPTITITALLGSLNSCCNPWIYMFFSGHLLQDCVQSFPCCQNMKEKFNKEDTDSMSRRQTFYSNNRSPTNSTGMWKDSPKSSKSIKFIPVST

The Ki is a dissociation constant, usually derived from enzyme kinetics or from competition with a known ligand. A lower Ki goes with higher affinity. Molecule `CN1Cc2cc(Cl)ccc2-n2c(nnc2C2CCN(C(=O)c3c[nH]c4ccccc34)CC2)C1` [Example 1, [4-(8-Chloro-5-methyl-5,6-dihydro-4H-2,3,5,10b-tetraaza-benzo[e]azulen-1-yl)-piperidin-1-yl]-(1H-indol-3-yl)-methanone] displayed a Ki of 73.8 nM.

For `Cc1ccccc1CC(=O)N1CCC(c2nnc3n2-c2ccc(Cl)cc2CN(C)C3)CC1` [Example 2, 1-[4-(8-Chloro-5-methyl-5,6-dihydro-4H-2,3,5,10b-tetraaza-benzo[e]azulen-1-yl)-piperidin-1-yl]-2-o-tolyl-ethanone], affinity was put at a Ki of 35 nM. Consider `CN1Cc2cc(Cl)ccc2-n2c(nnc2C2CCN(C(=O)C3(C)CCCCC3)CC2)C1` [Example 9, [4-(8-Chloro-5-methyl-5,6-dihydro-4H-2,3,5,10b-tetraaza-benzo[e]azulen-1-yl)-piperidin-1-yl]-(1-methyl-cyclohexyl)-methanone], for which the affinity, expressed as Ki, was 59.9 nM. The figure for `CN1Cc2cc(Cl)ccc2-n2c(nnc2C2CCN(C(=O)CC3CC3)CC2)C1` [Example 18, 1-[4-(8-Chloro-5-methyl-5,6-dihydro-4H-2,3,5,10b-tetraaza-benzo[e]azulen-1-yl)-piperidin-1-yl]-2-cyclopropyl-ethanone] is 62.1 nM.

As to `CN1Cc2cc(Cl)ccc2-n2c(nnc2C2CCN(C(=O)c3cc4ccccc4[nH]3)CC2)C1` [Example 64, [4-(8-Chloro-5-methyl-5,6-dihydro-4H-2,3,5,10b-tetraaza-benzo[e]azulen-1-yl)-piperidin-1-yl]-(1H-indol-2-yl)-methanone], the Ki came to 34.7 nM. For `CN1Cc2cc(Cl)ccc2-n2c(nnc2C2CCN(C(=O)c3ccc4cc[nH]c4c3)CC2)C1` [Example 67, [4-(8-Chloro-5-methyl-5,6-dihydro-4H-2,3,5,10b-tetraaza-benzo[e]azulen-1-yl)-piperidin-1-yl]-(1H-indol-6-yl)-methanone] the value was 15.9 nM.

The record behind these values is patent US20070167430A1, “Compounds useful in therapy” (priority 2004, published 2007).
